From publication PMC8769072, “Proteome‐scale mapping of binding sites in the unstructured regions of the human proteome” (Molecular Systems Biology, 2022) come the findings set out here.

This assay deals with immobilized GST-tagged bait protein domains. Put plainly: ProP-PD phage selections (HD2 P8, sublibraries, HD2 P3, HD1 P8) with NGS and confidence level. Format: binding, human. The conditions noted are these: for HD confidence / HD mean counts / HD count proportions: HD1 P8 library; for HD mean counts: mean NGS counts over replicate selections; for HD count proportions: mean proportion of NGS counts.

[1] abbreviates: HD2 library, bait PDCD6IP_Alix-V-domain__Q8WUM4_360_702, benchmark motif instance, in_library_check FALSE, in_library_coverage 0.
[2] abbreviates: bait MAP1LC3A_ATG8 (Q9H492 2-121), HD2 library, benchmark motif instance recovered in the ProP-PD selection (TRUE/FALSE).
Where [3] appears, read: bait KPNA4_Arm (O00629 68-487), HD2 library, benchmark motif instance recovered in the ProP-PD selection (TRUE/FALSE).
Setting [4] is: bait SIN3A_PAH__Q96ST3_295_383, HD2 library, whether the validated benchmark motif instance was recovered in the ProP-PD selection (TRUE/FALSE).
Setting [5] is: HD2 library, bait SUMO1_SUMO__P63165_1_101, known motif instance of the benchmarking set found (TRUE) or not found (FALSE) among selected peptides.
Where [6] appears, read: library HD2, bait EPS15_EH__P42566_121_215, whether the validated benchmark motif instance was recovered in the ProP-PD selection (TRUE/FALSE).
[7] abbreviates: bait CALM1_EF-hand__P0DP23_2_149, library HD2, benchmarking set of validated motif instances, TRUE = motif instance recovered in the ProP-PD selection.
Setting [8] is: bait OXSR1___O95747_434_527, HD2 library, whether the validated benchmark motif instance was recovered in the ProP-PD selection (TRUE/FALSE).
The mark [9] stands for this setting: bait AP2B1_adaptin__P63010_700_937, confidence level (4 = High, 2-3 = Medium, 1 = Low).
Setting [10] is: bait AP2B1_adaptin__P63010_700_937.
Setting [11] is: library HD2, bait VASP_EVH1__P50552_1_114, validated benchmark motif instance, in_library_check TRUE, TRUE/FALSE = instance recovered in ProP-PD selection.
Setting [12] is: library HD2, bait USP7_MATH-TRAF__Q93009_53_206, validated benchmark motif instance, in_library_check TRUE, TRUE/FALSE = instance recovered in ProP-PD selection.
Where [13] appears, read: library HD2, bait WDR5_WD_1234567_P61964_21_334, validated benchmark motif instance, in_library_check TRUE, TRUE/FALSE = instance recovered in ProP-PD selection.
[14] abbreviates: library HD2, bait KLC1_TPR__Q07866_203_497, whether the validated benchmark motif instance was recovered in the ProP-PD selection (TRUE/FALSE).
Setting [15] is: HD2 library, bait TNKS_TANK-peptide-bind__O95271_174_649, known motif instance of the benchmarking set found (TRUE) or not found (FALSE) among selected peptides.
The mark [16] stands for this setting: bait SUMO1_SUMO__P63165_1_101, HD2 library, confidence level (1-4) of best matching selected peptide.
[17] abbreviates: bait SUMO1_SUMO__P63165_1_101, HD2 library, specificity score of best matching selected peptide.
[18] abbreviates: bait SUMO1_SUMO__P63165_1_101, HD2 library, whether the validated benchmark motif instance was recovered in the ProP-PD selection (TRUE/FALSE).
Setting [19] is: HD2 library, bait CALM1_EF-hand__P0DP23_2_149, benchmark motif instance, in_library_check FALSE, in_library_coverage 0.

In the case of -----MSLYPSLEDLKVDK [SDCBP 3-7], under setting [1], the motif_found result is reported as “FALSE”.

In the case of --MELNSLLILLEAAEYLERRDREA [MXD4 6-16], the motif_found entry (HD2 library, bait SIN3A_PAH__Q96ST3_295_383, benchmark motif instance, in_library_check FALSE, in_library_coverage 0) is “FALSE”. Regarding -MDAATLTYDTLRFAEFED, the motif_found entry reads like this: under setting [2], “FALSE”; (bait MAP1LC3B_ATG8 (Q9GZQ8 2-119), HD2 library, benchmark motif instance recovered in the ProP-PD selection (TRUE/FALSE)) “FALSE”. -MNSPGGRGKKKGSGGASNPV: the motif_found result under setting [3] was “FALSE”. Turning to AAAAYVDHFAAECLVSMSSRAVVH, the motif_found entry under setting [4] is recorded as “FALSE”.

Regarding AAALPQPEVILLDSDLDEPIDL, the motif_found entry under setting [5] was “FALSE”. As to AAAVRMNIQMLLEAADYLERREREA, the motif_found result under setting [4] is recorded as “FALSE”. For the substance AAGPSVASSTNPFQTN, under “library HD2, bait EPS15_EH__P42566_121_215, best matching peptide”, the best_specificity amounted to 1. Also, the best_confidence (library HD2, bait EPS15_EH__P42566_121_215, confidence level of best matching peptide (4 High, 2-3 Medium, 1 Low)) amounted to 3. For the same substance, the motif_found entry under setting [6] is recorded as “TRUE”.

Take AAQATGTTNPFLL------: under setting [6], the motif_found result is “FALSE”.

On to AASVNANFAHFDNFPK, for which the HD2_endomembrane confidence (bait AP2B1_adaptin__P63010_700_937, HD2 P8 endomembrane sublibrary, confidence level (4 = High, 2-3 = Medium, 1 = Low)) is 4.

Regarding ADTPPPAYLPPEDPMT, the best_confidence (library HD2, bait YAP1_WW_1_P46937_169_207, confidence level of best matching selected peptide (4 High, 2-3 Medium, 1 Low)) came to 2. Also, the best_specificity (library HD2, bait YAP1_WW_1_P46937_169_207, specificity score of best matching selected peptide) was 1. The motif_found entry (library HD2, bait YAP1_WW_1_P46937_169_207, validated benchmark motif instance, in_library_check TRUE, TRUE/FALSE = instance recovered in ProP-PD selection) was “TRUE”.

With AEERVVVISSSE, the motif_found entry under setting [5] is listed as “FALSE”. AESSQAVMSLPKLQQV came in with an HD2 confidence (bait ANKRA2_Ank__Q9H9E1_142_313, library HD2 P8) of 4.

As to AFIIWLARRLKKGKK [SELL], the motif_found entry under setting [7] was “FALSE”. As for AGVFKMGRFQVSVAADGAQ, under setting [8], the motif_found entry is reported as “FALSE”. Take AIPWAAFPAVSGVHLS: the HD confidence under setting [9] is given as 4. Also, under setting [10], the HD mean counts came to 2.25 and the HD count proportions came to 0.0009118. The substance also came in with an HD2 confidence (bait AP2B1_adaptin__P63010_700_937, HD2 P8 library, confidence level (4 = High, 2-3 = Medium, 1 = Low)) of 3. AKNGAASKRAFKQSPPAVPALGAGVKKRRHGDEDTYY: under setting [3], the motif_found entry is reported as “FALSE”. Turning to AMICYRKKRKGKLTLEDQAT, under setting [3], the motif_found entry was “FALSE”. Turning to APLEEEIFPSPPPPPEEEG, the motif_found result under setting [11] was “FALSE”. As for APPVSGTFKFNTDAAEFIPQEKKNSGL, the motif_found entry (bait PABP-B_PABP__P11940_544_623, HD2 library, whether the validated benchmark motif instance was recovered in the ProP-PD selection (TRUE/FALSE)) is “FALSE”. Substance AQCSTSDSACRISPGQ returned a best_confidence (library HD2, bait USP7_MATH-TRAF__Q93009_53_206, confidence level of best matching selected peptide (4 High, 2-3 Medium, 1 Low)) of 2. The substance further displayed a best_specificity (library HD2, bait USP7_MATH-TRAF__Q93009_53_206, specificity score of best matching selected peptide) of 1. For the same substance, the motif_found result under setting [12] is listed as “TRUE”. For AQSMVSGSHCTPPPPY, the motif_found entry (bait NEDD4_WW_4 (P46934 890-928), HD2 library, benchmark motif instance recovered in the ProP-PD selection (TRUE/FALSE)) is listed as “TRUE”. In addition, the best_confidence (bait NEDD4_WW_4 (P46934 890-928), HD2 library, confidence level (1-4) of best matching peptide) is 4. For the setting “bait NEDD4_WW_4 (P46934 890-928), HD2 library, specificity score of best matching peptide”, this substance returned a best_specificity of 0.99.

In the case of AQSPLPSTNPFQPNGLAPG, under setting [6], the motif_found entry was “FALSE”. Consider “ARKEVIRNKIRAIGKMARVFSVLR,VIRNKIRAIGKMARVFS,KEVIRNKIRAIGKMARVFS [PPP3CA]”, for which, under setting [7], the motif_found entry is “FALSE”. In the case of ARTKQ, the motif_found result under setting [13] was “FALSE”. Take ARTKQTA: under setting [13], the motif_found entry is “FALSE”.

As for ASDDSNGLEWENDFVSAEMDDNGN, under setting [14], the motif_found result was “FALSE”. Turning to ASFTEDAPRPPVPGEEGELVST, the motif_found result under setting [15] is “FALSE”. For ASSATRELDELMASLSDFKIQGL, the motif_found result (bait PTK2_Focal-AT__Q05397_891_1050, HD2 library, whether the validated benchmark motif instance was recovered in the ProP-PD selection (TRUE/FALSE)) is recorded as “FALSE”.

Turning to ASTS, under setting [12], the motif_found result is reported as “FALSE”.

ATGSDSSGVIDLTMDDEESG: the motif_found entry under setting [5] was “FALSE”. In the case of ATLDALLAALRRIQRAD, the motif_found result (library HD2, bait CALM1_EF-hand__P0DP23_2_149, motif instance NOT in library (in_library_check FALSE, in_library_coverage 0)) was “FALSE”. Consider ATQCDPEEIIVLSDSD-------, for which the motif_found result under setting [5] is listed as “FALSE”. AVPSVPSTDWEDGDLTDTVSGP: the motif_found result under setting [14] is on record as “FALSE”. For CNSDRVLKRSAEGSNPPKPLKKLRFDIEGSDE, the motif_found entry under setting [3] was “FALSE”. On to CRRPLSRTRNPADGIPAPESSS, for which the motif_found result under setting [15] is “FALSE”. For the substance DAPIILSDSEEEEMIILEPDKNPKK, the motif_found entry under setting [5] is listed as “FALSE”. As to DAQAGKEPGGSRAHSSHLK, the motif_found entry under setting [12] is “FALSE”.

For DATLCSGRFTISTLLS, the best_confidence (bait OXSR1___O95747_434_527, HD2 library, confidence level (1-4) of best matching selected peptide) was 2. The same substance had a best_specificity (bait OXSR1___O95747_434_527, HD2 library, specificity score of best matching selected peptide) of 1. Further, the motif_found entry under setting [8] is recorded as “TRUE”. Take DDDSSKDSGFTIVSPL: the motif_found entry under setting [2] is recorded as “TRUE”. In addition, the best_confidence (bait MAP1LC3A_ATG8 (Q9H492 2-121), HD2 library, confidence level (1-4) of best matching peptide) is listed as 2. The best_specificity (bait MAP1LC3A_ATG8 (Q9H492 2-121), HD2 library, specificity score of best matching peptide) stood at 1. Turning to DDDVLIVYELTPTAEQ, the best_confidence under setting [16] is 2. The substance further gave a best_specificity under setting [17] of 1. Further, the motif_found entry under setting [18] is listed as “TRUE”. On to “DDGLDEAFSRLAQSRT,WELDDGLDEAFSRLAQSRTNPQVLD [LDLRAP1]”, for which the motif_found result (bait AP2B1_adaptin__P63010_700_937, library HD2, benchmarking set of validated motif instances, TRUE = motif instance recovered in the ProP-PD selection) is recorded as “TRUE”. In the case of “DDIMPAVKTVIRSIRILKFLVAKRKF [KCNQ4 524-549]”, under setting [19], the motif_found result is recorded as “FALSE”. On to DDPDAAELNPFGDPDSEEP, for which, under setting [6], the motif_found result was “FALSE”. Turning to DEIVDLTCESLEPVVV, the best_confidence under setting [16] is recorded as 2. In addition, the best_specificity under setting [17] was found to be 1. Moreover, under setting [18], the motif_found entry was “TRUE”. For the substance DFPPPPPDLEQLRLTD, for the setting “library HD2, bait VASP_EVH1__P50552_1_114, confidence level of best matching selected peptide (4 High, 2-3 Medium, 1 Low)”, the best_confidence worked out at 2. The best_specificity (library HD2, bait VASP_EVH1__P50552_1_114, specificity score of best matching selected peptide) turned out to be 1. Under setting [11], the motif_found entry is given as “TRUE”. In the case of DGGTTFEHLWSSLEPD, the motif_found result (bait MDM2_p53-binding-domain (Q00987 17-125), HD2 library, benchmark motif instance recovered in the ProP-PD selection (TRUE/FALSE)) was “FALSE”. As for DGNLYPRLYPELSQYMGLS [SDCBP 49-53], the motif_found entry under setting [1] is given as “FALSE”. For the substance DGTISVPETWAKFSND, the HD confidence under setting [9] is given as 4. Moreover, under setting [10], the HD mean counts is reported as 1.5 and the HD count proportions turned out to be 0.0006297. Consider DIDQMFSTLLGEMDLLTQSLGVDT, for which the motif_found result (HD2 library, bait TLN1_PTB__Q9Y490_309_401, known motif instance of the benchmarking set found (TRUE) or not found (FALSE) among selected peptides) was “FALSE”. Consider “DKAITDRVILLQKVIRGFKDRSNFLKLKNA [MYO7A 748-763]”, for which the motif_found result under setting [19] is “FALSE”. On to “DKEDDQEHPSEKQPSGAESGTLARASLALPTSSLSRTASQSSSHRGWEILRQNTLGHLNLGLNLSEGDGEE [TRPV5]”, for which the motif_found result under setting [7] is given as “FALSE”. As to DLRKIPDSNPFDATAGYRS, under setting [6], the motif_found entry is reported as “FALSE”.

On to DNEKECIIVWEKK, for which the motif_found result under setting [5] is “FALSE”. As for DPSMDKAAVKIQAAFKGYKVRKEMKQQEGPM [OBSCN], under setting [7], the motif_found result was “FALSE”.
